Molecules are shown by their SMILES. Calls of active or inactive are those of the source. How the calls were made is not given here.

Consider five compounds from PubChem BioAssay AID1259407 (Chemical Carcinogenesis Research Information System (CCRIS), 2018).

In this data set the test system is CCRIS mutagenicity, Ames/micronucleus/aberration tests. Nature of the data set: CCRIS mutagenicity studies.
Setting [1] is: Test System: AMES SALMONELLA TYPHIMURIUM, Strain/Indicator: TA98, Metabolic Activation: NONE, Method: STANDARD PLATE.
The mark [2] stands for this setting: Test System: AMES SALMONELLA TYPHIMURIUM, Strain/Indicator: TA98, Metabolic Activation: RAT, LIVER, S-9, AROCLOR 1254, Method: STANDARD PLATE.
The mark [3] stands for this setting: Test System: AMES SALMONELLA TYPHIMURIUM, Strain/Indicator: TA100, Metabolic Activation: NONE, Method: STANDARD PLATE.
Setting [4] is: Test System: AMES SALMONELLA TYPHIMURIUM, Strain/Indicator: TA100, Metabolic Activation: RAT, LIVER, S-9, AROCLOR 1254, Method: STANDARD PLATE.

Consider `Cc1cccc(NS(=O)(=O)c2cccc3cccnc23)c1`, for which the mutagenic call under setting [1] was “inactive; negative”; the mutagenic call under setting [2] is “inactive; negative”; the mutagenic call under setting [3] was “inactive; negative”; the mutagenic call under setting [4] is “inactive; negative”; the mutagenic call (Test System: AMES SALMONELLA TYPHIMURIUM, Strain/Indicator: TA1535, Metabolic Activation: NONE, Method: STANDARD PLATE) is “inactive; negative”; the mutagenic call (Test System: AMES SALMONELLA TYPHIMURIUM, Strain/Indicator: TA1535, Metabolic Activation: RAT, LIVER, S-9, AROCLOR 1254, Method: STANDARD PLATE) was “inactive; negative”. The mutagenic call by setting is: (Test System: AMES SALMONELLA TYPHIMURIUM, Strain/Indicator: TA1537, Metabolic Activation: NONE, Method: STANDARD PLATE) “inactive; negative”; (Test System: AMES SALMONELLA TYPHIMURIUM, Strain/Indicator: TA1537, Metabolic Activation: RAT, LIVER, S-9, AROCLOR 1254, Method: STANDARD PLATE) “inactive; negative”.
Consider `BrCc1cc2c3c(cccc3c1)-c1ccccc1-2`, for which the mutagenic call under setting [1] was “active; positive” and the mutagenic call under setting [3] is “active; positive”.
`ClC(Cl)=C(c1ccc(Cl)cc1)c1ccc(Cl)cc1`: the mutagenic call (End Point: IN VITRO CHROMOSOMAL ABERRATIONS, Test System: CHINESE HAMSTER OVARY CELLS, Metabolic Activation: NONE) was “inactive; negative”; the mutagenic call (End Point: IN VITRO CHROMOSOMAL ABERRATIONS, Test System: CHINESE HAMSTER OVARY CELLS, Metabolic Activation: RAT, LIVER, S-9, AROCLOR 1254) is “inactive; negative”; the mutagenic call (Test System: AMES SALMONELLA TYPHIMURIUM, Strain/Indicator: TA97, Metabolic Activation: NONE, Method: STANDARD PLATE) was “inactive; negative”; the mutagenic call (Test System: AMES SALMONELLA TYPHIMURIUM, Strain/Indicator: TA97, Metabolic Activation: RAT, LIVER, S-9, AROCLOR 1254, Method: STANDARD PLATE) was “inactive; negative”; the mutagenic call under setting [1] is “inactive; negative”; the mutagenic call under setting [2] is “inactive; negative”. For the same compound, the mutagenic call under setting [3] was “inactive; negative”; the mutagenic call under setting [4] was “inactive; negative”; the mutagenic call (Test System: CHINESE HAMSTER V-79, Strain/Indicator: V-79/8-AZAGUANINE, Metabolic Activation: NONE, Method: STANDARD PLATE) is “active; positive”; the mutagenic call (Test System: MOUSE LYMPHOMA, Strain/Indicator: L5178Y (TK+/TK-), Metabolic Activation: NONE, Method: SUSPENSION/PLATE) was “active; positive”.
For `NC(Cn1ccnc1)C(=O)O` (configuration not stated), the mutagenic call is “inactive; negative” (Test System: AMES SALMONELLA TYPHIMURIUM, Strain/Indicator: TA98, Metabolic Activation: NONE); “inactive; negative” (Test System: AMES SALMONELLA TYPHIMURIUM, Strain/Indicator: TA100, Metabolic Activation: NONE); “inactive; negative” (Test System: AMES SALMONELLA TYPHIMURIUM, Strain/Indicator: TA102, Metabolic Activation: NONE); “inactive; negative” (Test System: AMES SALMONELLA TYPHIMURIUM, Strain/Indicator: TA1535, Metabolic Activation: NONE); “inactive; negative” (Test System: AMES SALMONELLA TYPHIMURIUM, Strain/Indicator: TP2428, Metabolic Activation: NONE); “active; positive” (Test System: E. COLI, Strain/Indicator: WP2 UVRA (PKM101), Metabolic Activation: NONE).
Consider `CCCCCCCCCCCCCC(=O)N(OC(C)=O)c1ccc2c(c1)Cc1ccccc1-2`, for which the mutagenic call (Test System: UDS HUMAN FIBROBLASTS, Strain/Indicator: THY INCORP (NON-S-PHASE), Metabolic Activation: NONE, Method: AUTORADIOGRAPHY) was “active; positive”.
